According to US6572788B2, “Amine oxide wood preservatives” (Lonza, Inc., priority 2000, dated 2003):
Each block holds one molecule with its values, some of them ahead of it.

Legend:
[1] = tested on: stains, molds, and fungi; assay: Wood preserving efficacy on freshly cut white birch wood (dip treatment, sealed bag); set-up: key: 4 - Clean with no visible stain or mold; 3 - Trace amount of white/black fungal growth; 2 - Black and/or white fungal growth visible on all faces and ends; 1 - Heavy fungal growth
Method: The wood preserving efficacy of each aqueous test solution in Table 1 below was tested on freshly cut white birch wood as follows. All percentages in Table 1 are by weight. A branch of white birch tree measuring about 3 inches in diameter was cut into pieces about 6 inch in length. Each piece was then split into 4 sections. Each section was dipped into the test solution for about 1 minute and blotted with a paper towel to remove excess liquid. The sections were sealed in a clear plastic bag and stored at ambient conditions. The sections were observed after 1, 3, 7, and 12 weeks for the growth of stains, molds, and fungi. The aqueous test solutions were prepared by mixing the active ingredient with water.

[2] = tested on: Chaetomium globsum (C. globsum), a soft rot fungus; assay: Agar plate method, fungus growth inhibition; format: cell-based
Method: (§1) The efficacy of aqueous solutions of amine oxides and didecyldimethyl ammonium chloride to inhibit fungus growth was evaluated by the agar plate method known in the art. […] The fungi tested were Trametes versicolor (T. versicolor), a white rot fungus; Gloeophyllum trabeum (G. trabeum), a brown rot fungus which is tolerant of arsenic and phenolic type wood preservatives; Poria placenta (P. placenta), a brown rot fungus which is tolerant to copper in wood preservatives; Lentinus lepideus (L. lepideus), a brown rot fungus which is tolerant to creosote; Coniophora puteana (C. puteana), a brown rot fungus; and Chaetomium globsum (C. globsum), a soft rot fungus.

[3] = tested on: Coniophora puteana (C. puteana), a brown rot fungus; assay: Agar plate method, fungus growth inhibition; format: cell-based
Method: as §1

[4] = tested on: Gloeophyllum trabeum (G. trabeum), a brown rot fungus; assay: Agar plate method, fungus growth inhibition; format: cell-based
Method: as §1

[5] = tested on: Lentinus lepideus (L. lepideus), a brown rot fungus; assay: Agar plate method, fungus growth inhibition; format: cell-based
Method: as §1

[6] = tested on: Poria placenta (P. placenta), a brown rot fungus; assay: Agar plate method, fungus growth inhibition; format: cell-based
Method: as §1

[7] = tested on: Trametes versicolor (T. versicolor), a white rot fungus; assay: Agar plate method, fungus growth inhibition; format: cell-based; settings: 50% retardation of growth
Method: as §1

[8] = tested on: C. globosum (soft rot decay fungi); assay: Agar dilution plate method, wood rot fungi; format: cell-based; settings: C. globosum, 100% growth retardation, Table 14
Method: (§2) The efficacy of the aqueous amine oxide solutions in Table 14 at various concentrations against the wood rot fungi T. versicolor (white rot fungi), G. trabeum (brown rot fungi), P. placenta (brown rot fungi), and C. globosum (soft rot decay fungi) were determined using the agar dilution plate method well known in the art. […] The percent retardation of the fungi was determined by the percentage change in the diameter of the fungi on the agar plate (i.e. Percent Retardation=((Diameter of Control)−(Diameter of Treated Fungi))/(Diameter of Control)*100%).

[9] = tested on: G. trabeum (brown rot fungi); assay: Agar dilution plate method, wood rot fungi; format: cell-based; settings: G. trabeum, 100% growth retardation, Table 14
Method: as §2

[10] = tested on: P. placenta (brown rot fungi); assay: Agar dilution plate method, wood rot fungi; format: cell-based; settings: P. placenta, 100% growth retardation, Table 14
Method: as §2

[11] = tested on: T. versicolor (white rot fungi); assay: Agar dilution plate method, wood rot fungi; format: cell-based; settings: T. versicolor, 100% growth retardation, Table 14
Method: as §2

[12] = tested on: stains, molds, and fungi; assay: Wood preserving efficacy on freshly cut green chestnut oak (dip treatment); set-up: scale not given here
[13] = tested on: Decay; assay: Field stake test (AWPA E7), southern yellow pine stakes in ground: decay; settings: 10 stakes, 10 = all stakes intact and free of decay, 0 = completely decayed
Method: (§3) 40″ by ¾″ by ¾″ pieces of southern yellow pine lumber were treated with the aqueous solution prepared in Example 1 according to the procedure described in the American Wood Preservers' Association test method E7, which is hereby incorporated by reference. The procedure is generally as follows. The southern yellow pine lumber pieces were placed in a pressure treating cylinder for about 30 minutes at about −90 kPa, injected with the aqueous solution, and pressurized to about 800 kPa for about 30 minutes. The pressure was released by the addition of air and the solution was drained.
(§4) This procedure was repeated with aqueous solutions containing 0.5 or 1.0% by weight of copper chromium arsenate (CCA) and aqueous solutions containing 0.5, 1.0, or 1.5% by weight of didecyl dimethyl ammonium chloride (DDAC).
(§5) After 11 months, the stakes were observed.

[14] = tested on: Termite; assay: Field stake test (AWPA E7), southern yellow pine stakes in ground: termite attack; settings: 10 stakes, 10 = free of termite attack, 0 = completely attacked
Method: as §3, §4, §5

[15] = tested on: stains, molds, and fungi; assay: Wood preserving efficacy on freshly cut tulip wood (dip treatment); note: key: 4 - Clean with no visible stain or mold; 3 - Trace amount of white/black fungal growth; 2 - Black and/or white fungal growth visible on all faces and ends; 1 - Heavy fungal growth
Method: The wood preserving efficacy of each aqueous test solution in Table 17 below was tested on freshly cut tulip wood (also known as Tulip-Popular, Yellow Popular, and Liriodendron tulipfera L.) as follows. All percentages in Table 17 are by weight. Pieces of tulip wood cut from a 4″ debarked branch were cut into pieces. Each piece was then split into 4 sections. Each section was dipped into the test solution for about 1 minute and blotted with a paper towel to remove excess liquid. The sections were sealed in a clear plastic bag and stored at ambient conditions. The sections were observed after 1, 3, 7, and 11 weeks for the growth of stains, molds, and fungi. The aqueous test solutions were prepared by mixing the active ingredient with water.

[16] = tested on: stains, molds, and fungi; assay: Wood preserving efficacy on freshly cut beech wood (dip treatment); settings: beech wood pieces (Example 15); note: key: 4 - Clean with no visible stain or mold; 3 - Trace amount of white/black fungal growth; 2 - Black and/or white fungal growth visible on all faces and ends; 1 - Heavy fungal growth
Method: The wood preserving efficacy of each aqueous test solution in Table 18 below was tested on freshly cut beech wood (Fagus grandifolia Ehrh.) as follows. All percentages in Table 18 are by weight. A 1″ branch of a beech tree was split into two pieces. The bark was left on the pieces. Each piece was dipped into the test solution for about 1 minute and blotted with a paper towel to remove excess liquid. […] The aqueous test solutions were prepared by mixing the active ingredient with water.

[17] = Field Site A, listed as 0.5% (w/w) DDAC
[18] = Field Site A, listed as 1.0% (w/w) DDAC
[19] = Field Site A, listed as […] (w/w) DDAC

Molecule: Coco-dimethylamine oxide
Rating of treated white birch sections vs. Time ([1]; 1 week): 4 | Rating of treated white birch sections vs. Time ([1]; 3 weeks): 4 | Rating of treated white birch sections vs. Time ([1]; 7 weeks): 3 | Rating of treated white birch sections vs. Time ([1]; 12 weeks): 2 | IC50 [2]: 50-70 ppm | IC50 [3]: 80 ppm | IC50 [4]: 10-15 ppm | IC50 [5]: 15 ppm | IC50 [6]: 3-7 ppm | IC50 [7]: 40-50 ppm | MIC (ppm of amine oxides) [8]: >1000 ppm | MIC (ppm of amine oxides) [9]: 500 ppm | MIC (ppm of amine oxides) [10]: 500-1000 ppm | MIC (ppm of amine oxides) [11]: 750 ppm

Molecule: CCCCCCCCCC[N+](C)(C)CCCCCCCCCC.[Cl-] [Didecyldimethyl ammonium chloride, didecyldimethylammonium chloride, reference compound]
Rating of treated white birch sections vs. Time ([1]; 1 week): 4 | Rating of treated white birch sections vs. Time ([1]; 3 weeks): 4 | Rating of treated white birch sections vs. Time ([1]; 7 weeks): 3 | Rating of treated white birch sections vs. Time ([1]; 12 weeks): 3 | Rating of treated green chestnut oak sections vs. Time ([12]; 2 weeks): 3 | Rating of treated green chestnut oak sections vs. Time ([12]; 4 weeks): 2 | Rating of treated green chestnut oak sections vs. Time ([12]; 5 weeks): 2 | Rating of treated green chestnut oak sections vs. Time ([12]; 9 weeks): 1 | IC50 [2]: 10-20 ppm | IC50 [4]: 10-40 ppm | IC50 [6]: 5-25 ppm | IC50 [7]: 30-50 ppm | Rating after 11 Months, Decay [13, 17]: 9.9 ± 0.3 | Rating after 11 Months, Decay [13, 18]: 10 | Rating after 11 Months, Decay [13, 19]: 10 | Rating after 11 Months, Decay ([13]; Field Site B): 10 | Rating after 11 Months, Termite Attack [14, 17]: 9.3 ± 0.9 | Rating after 11 Months, Termite Attack [14, 18]: 9.9 ± 0.3 | Rating after 11 Months, Termite Attack [14, 19]: 8.9 ± 1.3 | Rating after 11 Months, Termite Attack ([14]; Field Site B): 10 | Rating of treated tulip sections vs. Time ([15]; 1 week): 4 | Rating of treated tulip sections vs. Time ([15]; 3 weeks): 4 | Rating of treated tulip sections vs. Time ([15]; 7 weeks, listed as 0.32% Didecyldimethyl ammonium chloride): 3.5 | Rating of treated tulip sections vs. Time ([15]; 7 weeks, listed as 0.65% Didecyldimethyl ammonium chloride): 4 | Rating of treated tulip sections vs. Time ([15]; 11 weeks, listed as 0.32% Didecyldimethyl ammonium chloride): 3.5 | Rating of treated tulip sections vs. Time ([15]; 11 weeks, listed as 0.65% Didecyldimethyl ammonium chloride): 4 | Rating of treated tulip sections vs. Time ([16]; 1 week): 4 | Rating of treated tulip sections vs. Time ([16]; 3 weeks, listed as 0.32% Didecyldimethyl ammonium chloride): 2 | Rating of treated tulip sections vs. Time ([16]; 3 weeks, listed as 0.65% Didecyldimethyl ammonium chloride): 3.5 | Rating of treated tulip sections vs. Time ([16]; 7 weeks): 2 | Rating of treated tulip sections vs. Time ([16]; 11 weeks): 2

IC50 [2]: 20-50 ppm | IC50 [3]: 80 ppm | IC50 [4]: 25-30 ppm | IC50 [5]: 3 ppm | IC50 [6]: 5-25 ppm | IC50 [7]: 30 ppm | MIC ([8]; Chaetomium globosum, read-out: MIC (ppm of amine oxides)): > 1000 mg/L | MIC ([9]; Gloeophyllum trabeum, read-out: MIC (ppm of amine oxides)): > 1000 mg/L | MIC ([10]; read-out: MIC (ppm of amine oxides)): > 1000 mg/L | MIC ([11]; Trametes versicolor, read-out: MIC (ppm of amine oxides)): > 1000 mg/L
Molecule: CCCCCCCCCCCCCCCC[N+](C)(C)[O-] [Hexadecyl dimethylamine oxide, hexadecyl dimethylamine oxide]
Rating of treated white birch sections vs. Time ([1]; 1 week): 3 | Rating of treated white birch sections vs. Time ([1]; 3 weeks): 2 | Rating of treated white birch sections vs. Time ([1]; 7 weeks): 2 | Rating of treated white birch sections vs. Time ([1]; 12 weeks): 2
